Series [1] deals with i-NOS (Homo sapiens, UniProt P35228). As to the kind of experiment: i-NOS inhibition, comparison with NIL amides. It is filed as biochemical.
Series [2] deals with Human Cartilage. Description: Human cartilage explant assay (nitrite production, IL-1β induced). The series is classed as cell-based. As to conditions: inhibition of nitrite production, IL-1β stimulated explants. The method, then:
Human Cartilage Explant Assay
Bone pieces are rinsed twice with Dulbecco's Phosphate Buffered Saline (GibcoBRL) and once with Dulbecco's Modified Eagles Medium (GibcoBRL) and placed into a petri dish with phenol red free Minimum Essential Medium (MEM) (GibcoBRL). Cartilage was cut into small explants of approximately 15-45 mg in weight and one or two explants per well are placed into either 96 or 48 well culture plates with 200-500 μL of culture media per well. The culture media was either a custom modification of Minimum Essential Medium(Eagle) with Earle's salts (GibcoBRL) prepared without L-Arginine, without L-Glutamine and without phenol red or a custom modification of serumless Neuman and Tytell (GibcoBRL) medium prepared without L-arginine, without insulin, without ascorbic acid, without L-glutamine and without phenol red. Both are supplemented before use with 100 μM L-Arginine (Sigma), 2 mM L-glutamine, 1×HL-1 supplement (BioWhittaker), […] ascorbic acid (Sigma) and 150 pg/ml recombinant human IL-1β (RD Systems) to induce nitric oxide synthase. Compounds are then added in 10 μL aliquots and the explants incubated at 37° C. with 5% CO2 for 18-24 hours. The day old supernatant is then discarded and replaced with fresh culture media containing recombinant human IL-1β and compound and incubated for another 20-24 hours. […] All samples are done in quadruplicate. Unstimulated controls are cultured in media in the absence of recombinant human IL-1β. IC50 values (Table I) are determined from plotting the percent inhibition of nitrite production at six different concentrations of inhibitor.

Series [3] concerns LPS-induced increase in plasma nitrite/nitrate levels. Description: In vivo assay: endotoxin-treated rats, plasma nitrite/nitrate. More on the design: species or system rat. The conditions noted are these: oral administration, plasma nitrite/nitrate 5 hours post-treatment. The method, then:
Plasma nitrite/nitrate levels can be determined 5 hours post-treatment.

For series [4], the target named is T1, hiNOS (Homo sapiens, UniProt P35228).
T1 construct: made in house; host or cells: Sf9 insect cells (baculovirus vector)
As to the kind of experiment: Assay for time dependent inhibition, hiNOS. The series is classed as biochemical. As to conditions: 60 min preincubation. As to the method:
Assay for Time Dependent Inhibition
Aliquots (10 μL) are removed at 0, 10, 21 and 60 minutes and immediately added to a citrulline assay enzyme reaction mixture containing L-[2,3-^3H]-arginine and a final L-arginine concentration of 30 μM in a final volume of 100 μL. The reaction is allowed to proceed for 15 minutes at 37° C. and terminated by addition of stop buffer and chromatography with Dowex 50W X-8 cation exchange ion exchange resin as described for the citrulline NOS assay. The % inhibition of NOS activity by an inhibitor was taken as the percent inhibition in activity compared to control enzyme preincubated for the same time in the absence of inhibitor.

[5] abbreviates: Rattus norvegicus, read-out: ED50.

Structures can show the parent of a compound that is named as a salt. Where two headings read alike, the source gives them in different places.

Sequence of i-NOS (P35228 whole entry): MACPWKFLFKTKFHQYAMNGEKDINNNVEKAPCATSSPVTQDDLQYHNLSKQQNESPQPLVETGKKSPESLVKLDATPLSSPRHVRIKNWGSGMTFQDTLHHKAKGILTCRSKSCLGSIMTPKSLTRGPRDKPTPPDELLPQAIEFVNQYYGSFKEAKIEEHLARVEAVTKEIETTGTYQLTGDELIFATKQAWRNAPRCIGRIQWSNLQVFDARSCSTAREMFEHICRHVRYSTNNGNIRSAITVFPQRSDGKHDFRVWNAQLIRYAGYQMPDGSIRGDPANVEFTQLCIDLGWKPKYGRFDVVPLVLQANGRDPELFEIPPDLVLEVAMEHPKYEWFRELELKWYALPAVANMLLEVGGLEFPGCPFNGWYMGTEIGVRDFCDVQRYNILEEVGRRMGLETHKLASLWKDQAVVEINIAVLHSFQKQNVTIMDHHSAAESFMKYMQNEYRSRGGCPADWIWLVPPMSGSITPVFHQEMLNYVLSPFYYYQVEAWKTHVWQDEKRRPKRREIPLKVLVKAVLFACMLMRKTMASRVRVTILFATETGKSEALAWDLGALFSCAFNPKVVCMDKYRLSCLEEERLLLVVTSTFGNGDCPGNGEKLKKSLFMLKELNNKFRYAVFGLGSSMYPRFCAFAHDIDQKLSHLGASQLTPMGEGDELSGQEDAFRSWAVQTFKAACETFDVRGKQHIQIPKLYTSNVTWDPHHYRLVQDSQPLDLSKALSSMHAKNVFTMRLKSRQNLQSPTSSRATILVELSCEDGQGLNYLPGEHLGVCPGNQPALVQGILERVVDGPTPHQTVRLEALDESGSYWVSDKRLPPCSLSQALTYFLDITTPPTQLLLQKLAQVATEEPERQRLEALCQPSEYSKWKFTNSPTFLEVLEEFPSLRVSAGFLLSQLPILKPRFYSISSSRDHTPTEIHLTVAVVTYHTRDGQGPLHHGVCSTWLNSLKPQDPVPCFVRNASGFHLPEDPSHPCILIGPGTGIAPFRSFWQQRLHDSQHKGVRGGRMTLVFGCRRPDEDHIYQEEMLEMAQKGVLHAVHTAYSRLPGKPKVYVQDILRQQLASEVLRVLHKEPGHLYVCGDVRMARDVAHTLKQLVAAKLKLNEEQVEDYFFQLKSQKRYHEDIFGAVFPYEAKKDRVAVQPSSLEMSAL

For “2S-amino-6-[(1-iminoethyl)amino]-N-(1H-tetrazol-5-yl)hexanamide, hydrate, dihydrochloride [Example 1]”, the “i-NOS selectivity relative to NIL amide or NIL dimethylamide” value in series [1] (compared with NIL amide or NIL dimethylamide) is on record as “more selective”. As a reminder, the IC50 is the point on the concentration scale where inhibition reaches its midpoint. Low values mean higher potency, high ones lower potency. Take `CC(=N)NCC(F)=CCC[C@H](N)C(=O)O` (mixture of isomers) [Example B, (2S,5E/Z)-2-amino-6-fluoro-7-[(1-iminoethyl)amino]-5-heptenoic acid, dihydrochloride]: the IC50 in series [2] (Homo sapiens) was 0.2 µM. What is called ED50 is the dose at which the effect has come halfway, by size or by number of responders. `CC(=N)NC/C(F)=C\CC[C@H](N)C(=O)O` [Example A, (2S,5E)-2-amino-6-fluoro-7-[(1-iminoethyl)amino]-5-heptenoic acid, dihydrochloride, monohydrate]: in series [2] (Homo sapiens), the midpoint of inhibition, the IC50, lay at 0.1 µM. The ED50 was below 0.1 mg/kg in series [3] (setting [5]) and below 0.1 mg/kg in series [3] (dihydrochloride, monohydrate). In the case of `CC(=N)NC/C(F)=C/CC[C@H](N)C(=O)O` [Example D, (2S,5Z)-2-amino-6-fluoro-7-[(1-iminoethyl)amino]-5-heptenoic acid, trihydrochloride, dihydrate], the IC50 in series [2] (Homo sapiens) came out at 2.5 µM. Also, in series [3] (setting [5]), the ED50 was above 10 mg/kg. In general, melting point refers to the temperature of the solid-liquid transition. `CC(=NO)NC/C(F)=C\CC[C@H](N)C(=O)O` [Example G, (2S,5E)-2-amino-6-fluoro-7-[(1-hydroximinoethyl)amino]-5-heptenoic acid] gave a melting point of 198 to 200 °C. Besides, the ED50 in series [3] (setting [5]) is below 0.1 mg/kg. As to `CC(=N)NC/C(F)=C\CC[C@H](N)C(=O)Nc1nnn[nH]1` [Example H, (2S,5E)-2-amino-6-fluoro-7-[(1-iminoethyl)amino]-N-(1H-tetrazol-5-yl) 5-heptenamide, dihydrochloride], in series [3] (setting [5]), the ED50 is below 0.3 mg/kg. `CC(=N)NC/C(F)=C\CC[C@](C)(N)C(=O)O.Cl.Cl` [Example HH, (2S,5E)-2-amino-2-methyl-6-fluoro-7-[(1-iminoethyl)amino]-5-heptenoic acid, dihydrochloride] registered a concentration for half-maximal inhibition (IC50) in series [2] (Homo sapiens) of 0.4 µM. In series [3] (setting [5]), the ED50 worked out at 0.4 mg/kg. In the case of `COC[C@](N)(CSCCNC(C)=N)C(=O)O` [Example J, 2-[[[2-[(1-Iminoethyl)amino]ethyl]thio]methyl]-O-methyl-D-serine, dihydrochloride], the IC50 in series [2] came out at 8.2 µM. In turn, `CC(=N)NC/C=C\CC[C@](C)(N)C(=O)O` [Example LL, (2S,5Z)-7-acetimidoylamino-2-amino-2-methyl-hept-5-enoic acid] returned an IC50 in series [2] (Homo sapiens) of 0.8 µM. Also, the ED50 in series [3] (setting [5]) stood at 0.3 mg/kg.

For `CC(=N)NCCCC[C@H](N)C(=O)Nc1nnn[nH]1` [Example NN, 2S-amino-6-[(1-iminoethyl)amino]-N-(1H-tetrazol-5-yl)hexanamide, hydrate, dihydrochloride], in series [1] (compared with 2S-amino-6-[(1-iminoethyl)amino]hexanamide (NIL amide) or NIL dimethylamide), the “i-NOS inhibitor potency relative to NIL amide or NIL dimethylamide” value was “more potent”. In series [2] (Homo sapiens), `Cl.N=C1CCCC[C@H](CCCC[C@@H](N)C(=O)O)N1.O.O.O` [Example V, (αR,2S)-α-aminohexahydro-7-imino-1H-azepine-2-hexanoic acid, trihydrate hydrochloride] displayed an IC50 below 10 µM. Moreover, the ED50 in series [3] (setting [5]) is below 3 mg/kg. As to `Cl.N=C1CCCC[C@@H](CCCC[C@H](N)C(=O)O)N1.O.O.O` [Example W, (αS,2R)-α-aminohexahydro-7-imino-1H-azepine-2-hexanoic acid, trihydrate hydrochloride], in series [2] (Homo sapiens), the IC50 was above 30 µM. Moreover, the ED50 in series [3] (setting [5]) is above 10 mg/kg. Turning to `N=C1CCCC[C@H](CCCC[C@H](N)C(=O)O)N1` [Example X, (αS,2S)-α-aminohexahydro-7-imino-1H-azepine-2-hexanoic acid, trihydrate hydrochloride], the IC50 in series [2] is below 10 µM. As a reminder, the inhibition is the share of the control response that was lost under treatment. Read a low inhibition as a weak effect. Consider `N=C1CCCC[C@H](CCCC[C@H](N)C(=O)O)N1` [Example Z, (αS,2S)-α-aminohexahydro-7-imino-1H-azepine-2-hexanoic acid, trihydrate hydrochloride], for which, in series [2] (Homo sapiens), the IC50 was below 10 µM. In series [4], this molecule showed an inhibition at 22 µM of 85%.

(Values after US20040127569A1, “Methods for treatment and prevention of gastrointestinal conditions” (priority 2002, published 2004).)
